Molecules are shown by their SMILES. Residues, ends and D or L forms follow the SMILES beside them.

Data set [1] in a line: in vitro. The conditions noted are these: human plasma (500 µL) in Krebs-Henseleit buffer pH 7.4, 100 µg peptide, 37 °C shaking, 0, 30 and 120 min, UPLC-PDA, first-order kinetics; for half-life: human, plasma, pH 7.4, Plasma Half-Life. Here is the method: In vitro chemical and metabolic stability of Q007, Q010, Q017 and Q212 was determined in cell medium and human plasma, respectively, using previously described procedures. In brief, 100 µg of peptide was incubated in Krebs–Henseleit buffer pH 7.4 with cell medium/plasma (500 µL) at 37 °C while shaking. At predetermined time intervals (i.e., 0, 6 and 24 h for cell medium; 0, 30 and 120 min for plasma), aliquots were immediately transferred into microtubes containing 1:1 volume of 1% (v/v) trifluoroacetic acid solution in water. The enzyme reaction was further stopped by heating the solution at 95 °C for 5 min. Next, the samples were centrifuged to precipitate the denatured proteins and the supernatant analysed using UPLC-PDA (Waters, Milford, MA, USA). Appropriate placebo solutions were similarly prepared. Assuming first-order kinetics, the rate constant k was obtained from ln(Pt/Pt0) = −kt, from which the half-life was determined as T1/2 = ln(2)/k.

In the next data set the test system is human red blood cells. Conditions: human RBC, 1 μM QSP, 1 h, 37 °C. Here is the method: In vitro haemolysis of Q007, Q010, Q017 and Q212 was determined using previously described procedures. Briefly, freshly obtained human blood was centrifuged and the precipitate washed using freshly prepared 150 mM NaCl solution. After the final centrifugation step, the precipitate was resuspended into 100 mM sodium phosphate buffer pH 7.4. A 1 to 10 RBC solution was incubated for 1 h at 37 °C with QSP at a concentration of 1 μM. The absorbance of the supernatant was measured at 405 nm and corrected for the blank absorbance. The percent haemolysis was then calculated using the following equation: [(Asample − Ablank)/(Apositive control − Ablank)] × 100, with 1% (v/v) Triton X-100 being the positive control.

A short description of data set [2]: in vitro. Conditions: human, Caco-2.
Experimental: Caco-2 permeability tests were performed as described by Wynendaele et al. [7], based on the protocol of Hubatsch et al. [14]. Briefly, Caco-2 cells were seeded on 12-well polycarbonate membrane filters (0.4 μm pore size, Corning, Teltow, Germany) and left for differentiation during 21–29 days. […] Samples were quantitatively analysed using UPLC-MS/MS. Four independent biological replicates were used (different days and well-plates), with each between 3 and 6 technical replicates (i.e., different wells on one plate/in one day).

As usually defined, the half-life is the time in which the quantity being followed falls by half. Low values mean fast loss, high ones slow loss. The compound `CC[C@H](C)[C@H](NC(=O)[C@H](CC(C)C)NC(=O)[C@H](C)N)C(=O)N[C@@H](CC(C)C)C(=O)N[C@H](C(=O)N[C@@H](CC(C)C)C(=O)N[C@H](C(=O)N[C@@H](CO)C(=O)O)C(C)C)[C@@H](C)O` [Q017, iPD1] (H-ALILTLVS-OH) had a half-life in “in vitro [1]” of 2.5 h.
`C[C@@H](O)[C@H](NC(=O)[C@H](Cc1c[nH]c2ccccc12)NC(=O)[C@@H]1CCCN1C(=O)[C@H](CO)NC(=O)[C@@H](N)Cc1ccc(O)cc1)C(=O)N[C@@H](CC(N)=O)C(=O)N[C@@H](Cc1ccccc1)C(N)=O` [Q007, RNAIII Inhibiting Peptide (RIP)] (H-YSPWTNF-NH2): in “in vitro [1]”, the “Plasma Half-Life” value came to 2.2 h and the half-life is 2 h. Also, in the data set on human red blood cells, the “haemolysis-inducing effect” value is “did not induce haemolysis”.
The Papp A→B is the apparent permeability from the apical to the basolateral side of a cell layer. The low end stands for poor permeation, the high end for ready permeation. `CC(C)C[C@H](NC(=O)[C@H](CC(=O)O)NC(=O)[C@H](C)N)C(=O)N1CCC[C@H]1C(=O)N[C@@H](Cc1ccccc1)C(=O)N[C@@H](CCC(=O)O)C(=O)N[C@@H](Cc1ccccc1)C(=O)O` [Q010, PapR7I] (H-ADLPFEF-OH): in “in vitro [1]”, the “Plasma Half-Life” value came out at 9.2 h and the half-life is 9 h. Moreover, the “haemolysis-inducing effect” value with human red blood cells was “lack of haemolysis-inducing effects”. For the same compound, in “in vitro [2]”, the Papp A→B at 30 min amounted to 0.0129 ×10⁻⁶ cm/s.
As to `CC(C)[C@H](N)C(=O)N1CCC[C@H]1C(=O)N[C@@H](Cc1ccccc1)C(=O)N[C@@H](CCC(=O)O)C(=O)N[C@@H](Cc1ccccc1)C(=O)O` [Q212, PapR5III] (H-VPFEF-OH), the half-life in the data set “in vitro [1]” was 0.2 h.

The record behind these values is article PMC9953703, “Bacterial Quorum-Sensing Peptides as Immune Modulators Present in Systemic Circulation” (Biomolecules, 2023).
